The experiment addresses human PAD4 (hPAD4) (Homo sapiens (Human), UniProt Q9UM07). Nature of the experiment: RFMS Human PAD4 Functional Assay 1. The experiment is classed as biochemical. The following applies: RFMS assay 1; 5 nM hPAD4, 250 μM BAEE substrate, 50 μM calcium, 37° C. How it is done: RFMS Human PAD4 Functional Assay 1:
Compounds were solubilized in 100% DMSO to achieve all) mM compound concentration. Compound stock solutions were stored at RT. A series of dilutions were prepared in DMSO and mixed 8 times with 20 μL mixing volume. Final top concentration of compound in the assay is 50 μM. Final assay conditions were as follows: • Reaction volume: 26 μl • Assay buffer: 25 mM hepes, pH 7.5, 5 mM NaCl, 1 mM DTT, 0.2 mg/ml BSA, 0.01% CHAPS, 50 μM Calcium, and 5 μM TPEN • Final concentrations: 5 nM hPAD4 enzyme, 250 μM BASE, and 0.5% DMSO • Total incubation time: 30 mins compound and enzyme preincubation at 37° C., 90 min enzyme/substrate reaction, 30 min reaction with phenyl glyoxal at 37° C. • Stop solution: 40 μl 5% TCA in ACN
0.13 μL of compound solution was added to 13 μL of 10 nM PAD4 in assay buffer. After 30 min 13 μl of 500 μM of BAEE was added in 25 mM hepes, pH 7.5, 5 mM NaCl, 1 mM DTT, 0.2 mg/ml BSA, 0.01% CHAPS, 50 μM Calcium, 5 μM TPEN was added and the reaction incubated for 90 min at 37° C. The enzymatic reaction was quenched by addition of 15 μl of 6.1N TCA, 100% Final Concentration is 20%, 35 μl of 8.5 mM phenyl glyoxal (final concentration 4 mM) is then added and the reaction is incubated for 30 min at 37° C.
After 30 minutes the plates are spun down to remove all precipitate. The enzyme reaction was quenched with an equal volume of methanol containing internal standard (modified citrulline). Samples were loaded onto the Rapid Fire RF300 system (Agilent) wherein they were first sipped for 1000 ms and then directly loaded to a C18 separations cartridge using a mixture of acetonitrile containing 0.01% formic acid for 3000 ms desalting. The flow rate of the mobile phase was 1.5 ml/min. Once the samples were eluted from the cartridge, a mobile phase of acetonitrile containing 0.01% formic acid was used to move the samples into the mass spectrometer for 4000 ms at a flow rate of 1.25 ml/min/Sciex API5500 triple quadrupole mass spectrometer (Applied Biosystems) equipped with ESI was used to analyze the peptidyl citrulline and internal standard ions.
MRM transition of product and internal standard were monitored at m/z 424.5 to 350.4 and m/z 293 to 247 respectively. The dwell time for each transition was set at 200 ms, and the ESI voltage was used at 5500 with a source temperature of 400° C. Extracted ion peaks for each transition were integrated using the Rapid Fire Integrator software. Peak area of analyte was normalized with internal standard.).

We go through 18 compounds from patent publication US12473304B2, “Heterocyclic PAD4 inhibitors” (BRISTOL-MYERS SQUIBB COMPANY, priority 2020, dated 2025).

For orientation: IC50 means the concentration needed to halve the response being measured.

Chain of human PAD4 (hPAD4) (Q9UM07 whole entry): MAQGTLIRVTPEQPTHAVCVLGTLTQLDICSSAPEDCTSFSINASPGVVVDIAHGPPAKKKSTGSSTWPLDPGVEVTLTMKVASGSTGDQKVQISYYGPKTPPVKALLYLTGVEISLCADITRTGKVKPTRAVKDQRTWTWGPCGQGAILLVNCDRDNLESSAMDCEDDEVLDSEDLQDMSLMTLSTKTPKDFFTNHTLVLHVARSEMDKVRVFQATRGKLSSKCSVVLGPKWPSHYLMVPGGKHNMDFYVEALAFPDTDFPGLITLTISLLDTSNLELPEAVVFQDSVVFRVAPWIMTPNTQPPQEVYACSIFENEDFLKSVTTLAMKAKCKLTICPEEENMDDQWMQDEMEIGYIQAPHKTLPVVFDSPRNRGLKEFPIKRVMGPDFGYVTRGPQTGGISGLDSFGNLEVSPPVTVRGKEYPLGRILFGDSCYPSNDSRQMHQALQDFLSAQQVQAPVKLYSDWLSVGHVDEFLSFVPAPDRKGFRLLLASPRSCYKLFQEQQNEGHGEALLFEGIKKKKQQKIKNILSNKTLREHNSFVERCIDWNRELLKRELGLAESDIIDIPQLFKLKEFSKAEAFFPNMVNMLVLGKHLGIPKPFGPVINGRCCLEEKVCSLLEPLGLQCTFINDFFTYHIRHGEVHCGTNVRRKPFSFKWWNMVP

On to `Cc1c(-c2cc3ccc(-c4ccc(N5CCCC5=O)cc4)nc3n2CC2CC2)nn2cc(C(=O)N3CC4CCC3[C@@H]4N)cc(F)c12` (stereo partly drawn) [Example 258, 1-[4-(2-{6-[(7R)-7-Amino-2-azabicyclo[2.2.1]heptane-2-carbonyl]-4-fluoro-3-methylpyrazolo[1,5-a]pyridin-2-yl}-1-(cyclopropylmethyl)-1H-pyrrolo[2,3-b]pyridin-6-yl)phenyl]pyrrolidin-2-one], for which the IC50 came to 220 nM.

For `Cc1ccc2cc(-c3oc4cc(C(=O)N5CC6CCC5[C@@H]6N)ccc4c3C)n(CC3CC3)c2c1` (stereo partly drawn) [Example 184, ((7R)-7-Amino-2-azabicyclo[2.2.1]heptan-2-yl)(2-(1-(cyclopropylmethyl)-6-methyl-1H-indol-2-yl)-3-methylbenzofuran-6-yl)methanone], the IC50 is 50 nM.

Turning to `Cc1c(-c2cc3ccc(-c4ccn5c(C)nnc5c4)nc3n2CC2CC2)oc2cc(C(=O)N3CC4CCC3[C@@H]4N)ccc12` (stereo partly drawn) [Example 167], the IC50 came to 45 nM.

As to `COc1cc(C(=O)N2C[C@H](N)C[C@@H](F)C2)cn2nc(-c3cc4cccc(C5CN(C(=O)[C@H]6CC[C@@H](O)CC6)C5)c4n3CC3CC3)c(C)c12` [Example 519, ((3R,5R)-3-Amino-5-fluoropiperidin-1-yl)(2-(1-(cyclopropylmethyl)-7-(1-((1s,4s)-4-hydroxycyclohexane-1-carbonyl)azetidin-3-yl)-1H-indol-2-yl)-4-methoxy-3-methylpyrazolo[1,5-a]pyridin-6-yl)methanone], the IC50 was determined as 40 nM.

`Cc1c(-c2cc3ccc(-c4ccc5cn[nH]c5c4F)cc3n2CC2CC2)nn2cc(C(=O)N3CC4CCC3[C@@H]4N)ccc12` (stereo partly drawn) [Example 330, (7R)-2-{2-[1-(Cyclopropylmethyl)-6-(7-fluoro-1H-indazol-6-yl)-1H-indol-2-yl]-3-methylpyrazolo[1,5-a]pyridine-6-carbonyl}-2-azabicyclo[2.2.1]heptan-7-amine]: the IC50 is 150 nM.

Regarding `COc1cc(C(=O)N2C[C@H](N)C[C@@H](F)C2)cn2nc(-c3cc4ccc(-c5cccc6[nH]ncc56)cc4n3CC3CC3)c(C)c12` [Example 222, (3R,5R)-1-{2-[1-(Cyclopropylmethyl)-6-(1H-indazol-4-yl)-1H-indol-2-yl]-4-methoxy-3-methylpyrazolo[1,5-a]pyridine-6-carbonyl}-5-fluoropiperidin-3-amine], the IC50 stood at 1010 nM.

For `Cc1c(-c2cc3ccc(-c4ccc(C(N)=O)cc4Cl)cc3n2CC2CC2)nn2cc(C(=O)N3C[C@H](N)C[C@@H](F)C3)ccc12` [Example 377, 4-(2-{6-[(3R,5R)-3-Amino-5-fluoropiperidine-1-carbonyl]-3-methylpyrazolo[1,5-a]pyridin-2-yl}-1-(cyclopropylmethyl)-1H-indol-6-yl)-3-chlorobenzamide], the IC50 was found to be 90 nM.

`Cc1c(-c2cc3cccc(C4CCN(C(=O)COC(C)C)CC4)c3n2CC2CC2)nn2cc(C(=O)N3CCC[C@@H](N)C3)ccc12` [Example 432, (R)-1-(4-(2-(6-(3-aminopiperidine-1-carbonyl)-3-methylpyrazolo[1,5-a]pyridin-2-yl)-1-(cyclopropylmethyl)-1H-indol-7-yl)piperidin-1-yl)-2-isopropoxyethan-1-one]: the IC50 worked out at 200 nM.

For the compound `Cc1c(-c2cc3ccc(-c4cccc(O)c4F)cc3n2CC2CC2)nn2cc(C(=O)N3C[C@H](N)C[C@@H](F)C3)ccc12` [Example 92, ((3R,5R)-3-Amino-5-fluoropiperidin-1-yl)(2-(1-(cyclopropylmethyl)-6-(2-fluoro-3-hydroxyphenyl)-1H-indol-2-yl)-3-methylpyrazolo[1,5-a]pyridin-6-yl)methanone], the IC50 was 672 nM.

Turning to `Cc1c(-c2cc3ccnc(OCCn4ccnc4C)c3n2CC2CC2)nn2cc(C(=O)N3CCC[C@@H](N)C3)ccc12` [Example 612, (R)-(3-Aminopiperidin-1-yl)(2-(1-(cyclopropylmethyl)-7-(2-(2-methyl-1H-imidazol-1-yl)ethoxy)-1H-pyrrolo[2,3-c]pyridin-2-yl)-3-methylpyrazolo[1,5-a]pyridin-6-yl)methanone], the IC50 was found to be 2960 nM.

As to `Cc1c(-c2cc3ccc(-c4ccc(F)c5[nH]ncc45)cc3n2CC2CC2)nn2cc(C(=O)N3CC4CCC3[C@@H]4N)ccc12` (stereo partly drawn) [Example 326, (7R)-2-{2-[1-(Cyclopropylmethyl)-6-(7-fluoro-1H-indazol-4-yl)-1H-indol-2-yl]-3-methylpyrazolo[1,5-a]pyridine-6-carbonyl}-2-azabicyclo[2.2.1]heptan-7-amine], the IC50 worked out at 200 nM.

Consider `Cc1c(-c2cc3ccc(-c4ccn5c(C)nnc5c4)nc3n2CC2CC2)nn2cc(C(=O)N3CCC[C@@H](N)C3)cc(F)c12` [Example 288, (3R)-1-{2-[1-(Cyclopropylmethyl)-6-{3-methyl-[1,2,4]triazolo[4,3-a]pyridin-7-yl}-1H-pyrrolo[2,3-b]pyridin-2-yl]-4-fluoro-3-methylpyrazolo[1,5-a]pyridine-6-carbonyl}piperidin-3-amine], for which the IC50 was found to be 80 nM.

For `Cc1c(-c2cc3cccnc3n2CC2CC2)nn2cc(C(=O)N3C[C@H](N)C[C@@H](F)C3)ccc12` [Example 80, ((3R,5R)-3-Amino-5-fluoropiperidin-1-yl)(2-(1-(cyclopropylmethyl)-1H-pyrrolo[2,3-b]pyridin-2-yl)-3-methylpyrazolo[1,5-a]pyridin-6-yl)methanone], the IC50 was 1610 nM.

On to `COC1CN(c2ccc3cc(-c4oc5cc(C(=O)N6CC7CCC6[C@@H]7N)ccc5c4C)n(CC4CC4)c3n2)C1` (stereo partly drawn) [Example 173, ((7R)-7-Amino-2-azabicyclo[2.2.1]heptan-2-yl)(2-(1-(cyclopropylmethyl)-6-(3-methoxyazetidin-1-yl)-1H-pyrrolo[2,3-b]pyridin-2-yl)-3-methylbenzofuran-6-yl)methanone], for which the IC50 is 90 nM.

For `COc1cc(C(=O)N2CC3CCC2[C@@H]3N)cn2nc(-c3cc4ccc(-c5ccccc5N5CCNC5=O)nc4n3CC3CC3)c(C)c12` (stereo partly drawn) [Example 205, 1-[2-(2-{6-[(7R)-7-Amino-2-azabicyclo[2.2.1]heptane-2-carbonyl]-4-methoxy-3-methylpyrazolo[1,5-a]pyridin-2-yl}-1-(cyclopropylmethyl)-1H-pyrrolo[2,3-b]pyridin-6-yl)phenyl]imidazolidin-2-one], the IC50 is 60 nM.

Regarding `COc1cc(C(=O)N2CCC[C@@H](N)C2)cn2nc(-c3cc4cccc(C5CCN(C(=O)C6CC(O)C6)CC5)c4n3CC3CC3)c(C)c12` (single isomer, unassigned) [Example 392], the IC50 turned out to be 3 nM.

As for `Cc1c(-c2cc3cccc(C4CCN(C(=O)[C@H]5CCC[C@@H](O)C5)CC4)c3n2CC2CC2)nn2cc(C(=O)N3CCC[C@@H](N)C3)ccc12` [Example 447, ((R)-3-aminopiperidin-1-yl)(2-(1-(cyclopropylmethyl)-7-(1-((1S,3R)-3-hydroxycyclohexane-1-carbonyl)piperidin-4-yl)-1H-indol-2-yl)-3-methylpyrazolo[1,5-a]pyridin-6-yl)methanone], the IC50 amounted to 170 nM.

On to `CO[C@H](C)C(=O)N1CCC(c2cccc3cc(-c4nn5cc(C(=O)N6CCC[C@@H](N)C6)ccc5c4C)n(CC4CC4)c23)CC1` [Example 460, (R)-1-(4-(2-(6-((R)-3-aminopiperidine-1-carbonyl)-3-methylpyrazolo[1,5-a]pyridin-2-yl)-1-(cyclopropylmethyl)-1H-indol-7-yl)piperidin-1-yl)-2-methoxypropan-1-one], for which the IC50 amounted to 70 nM.
